Earlier results as cited in US7687487B2, “Camptothecin-analog with a novel, “flipped” lactone-stable, E-ring and methods for making and using same” (BioNumerik Pharmaceuticals, Inc., priority 2007, dated 2010).
Entries after “also recorded” stand apart in the source; their conditions may differ. Read-outs that look alike come from different tables or passages of the source.

Experiments:
[1] = test system: advanced malignant melanoma; settings: fifteen patients
[2] = not given; remark: listed apart in the source
[3] = 24 hours after administration, once daily for 5 days, 6.5-20 mg/m^2/day
gastrointestinal cancer = settings: after 2 months (8 or 9 weeks)
[4] = for Toxicity: et al, * Dose Limiting Toxicity
tumors by Tumor Type = settings: et al
[5] = versus lactone form

Q: Which “50% or greater decrease in tumor diameter” value ([1]; 90-360 mg/m^2 every 2 weeks) does the source give for `CC[C@@]1(O)C(=O)OCc2c1cc1n(c2=O)Cc2cc3ccccc3nc2-1` [CPT sodium] here?
A: None of the patients

Q: And the myelosuppression ([1]; 90-360 mg/m^2 every 2 weeks)?
A: 11 patients

Q: And the “less pronounced transient tumor regression” value ([1]; no clinical benefit associated)?
A: three patients

Q: What about the bladder toxicity (doses of 20 to 30 mg/m^2) of the same compound?
A: dose limiting in three patients

Q: And the “most prominent non-hematologic toxic effect” value (fifteen patients, 20-67 mg/m^2 weekly, intravenous push)?
A: Cystitis

Q: What about the “Cystitis (% of 27 Patients)” value ([2]; 5-Day Course, P < 0.05) of the same compound?
A: 48 (P < 0.05) %

Q: What about the “Cystitis (% of 34 Patients)” value ([2]; Single Dose method of administration) of the same compound?
A: 24%

Q: What about the persistence of diarrhea ([2]; higher doses) of the same compound?
A: ≤ 4 weeks

Q: What about the “onset of cystitis after treatment” value ([2]; in vivo) of the same compound?
A: 7 to 10 days

Q: What about the “relation of plasma CPT levels to dose” value [3] of the same compound?
A: little relation to the dose given

Q: And the “patients with partial objective improvement” value (gastrointestinal cancer)?
A: only two of their 61 patients

Q: For `CCc1c2c(nc3ccc(OC(=O)N4CCC(N5CCCCC5)CC4)cc13)-c1cc3c(c(=O)n1C2)COC(=O)[C@]3(O)CC` [CPT-11, 7-ethyl-10-[4-(1-piperidino)-1-piperidino]carbonyloxy camptothecin], which Toxicity ([4]; Clavel, 90 min. QDx 3 Q21 Days, 37 Pts., 115 mg/m^2/d (33-115)) is on record?
A: neutropenia*; also recorded: diarrhea,; also recorded: vomiting,

Q: And the Toxicity ([4]; Ohe, 120 hr CI Q3 wks, 36 Pts., 40 mg/m^2/d (5-40))?
A: diarrhea*; also recorded: vomiting,; also recorded: thrombocytopenia; also recorded: Anemia; also recorded: liver

Q: And the “major reported dose-limiting toxicities” value ([4]; Phase I clinical trials summarised in Table VII)?
A: Neutropenia and diarrhea

Q: What about the “Tumor Type: Breast, responses” value (tumors by Tumor Type; Clavel, 37 Pts.) of the same compound?
A: (1 PR)

Q: What about the “Tumor Type: Mesothelioma, responses” value (tumors by Tumor Type; Clavel, 37 Pts.) of the same compound?
A: (1 PR)

Q: And the “Tumor Type: Esophagus, responses” value (tumors by Tumor Type; Culine, 59 Pts.)?
A: (1 PR) cervix

Q: What about the “Tumor Type: Ovarian, responses” value (tumors by Tumor Type; Culine, 59 Pts.) of the same compound?
A: (1 PR)

Q: What about the “Tumor Type: cervix, responses” value (tumors by Tumor Type; Culine, 59 Pts.) of the same compound?
A: (1 PR) renal

Q: What about the “Tumor Type: renal, responses” value (tumors by Tumor Type; Culine, 59 Pts.) of the same compound?
A: (1 PR)

Q: And the “Tumor Type: NS CLC, responses” value (tumors by Tumor Type; Negoro, 17 Pts.)?
A: (2 PRs)

Q: And the “Tumor Type with responses” value (tumors by Tumor Type; Ohe, 36 Pts.)?
A: None

Q: And the “Tumor Type: Colon Ca, responses” value (tumors by Tumor Type; Rothenberg, 32 Pts.)?
A: (2 PRs)

Q: What about the “Tumor Type: Cervix Ca, responses” value (tumors by Tumor Type; Rowinsky, 32 Pts.) of the same compound?
A: (1 PR)

Q: And the “Tumor Type: Colon Cancer, responses” value (tumors by Tumor Type; Rowinsky, 32 Pts.)?
A: (1 PR)

Q: Which “reduction of anti-tumor activity” value [5] does the source give for `CC[C@@](O)(C(=O)O)c1cc2n(c(=O)c1CO)Cc1cc3ccccc3nc1-2` [carboxylate form of CPT] here?
A: at least 10 fold
